# According to patent US11413278B2, “Compounds and methods for promoting stress resistance” (priority 2015, dated 2022):
# Entries after “also recorded” stand apart in the source; their conditions may differ. Like-named read-outs stand apart in the source and are kept apart here.
# Experiments:
# WI-38 cells = experiment: MMS resistance assay; format: cell-based, human; settings: for fold induction at 10 µM: Homo sapiens, 12 h; for Assay 3: MMS-resistant / Assay 5: Triple resistant: YES/NO; for Assay 3: MMS-resistant: * indicates partial; for Assay 5: Triple resistant: H2O2, cadmium and MMS; for Triple resistant: H2O2, CdCl2 and MMS
# Summary of the method: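 WI-38 cells were given compounds at five final concentrations (0.25–20 μM) in triplicate, followed by cadmium or MMS for 12 h. For MMS, medium was switched from OptiMEM+10% FBS to serum-free DMEM+2% BSA when compounds were added, 24 h before stressor. Two independent assays were run, analysed by global variance t-test.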
# [1] = test system: HTB-178 lung tumor cells (EGFR+, PIK3CA+, RB1−, TP53−); experiment: Killing effects on HTB-178 tumor cells; format: cell-based, human; settings: for Potential killing effects on HTB-178 tumor cells, 1st / Potential killing effects on HTB-178 tumor cells, 2nd: Assay 1(y), at 10 uM; for Assay 21: Potential killing effects on HTB-178 tumor cells: 10 uM, YES/NO
# [2] = Exp. 1, WI-38 cells, 10 uM, normalized ATP measurement, read-out: Exp. 1, under MMS stress treatment, at 10 uM (fold change)
# [3] = Exp. 2, WI-38 cells, 10 uM, normalized ATP measurement, read-out: Exp. 2, under MMS stress treatment, at 10 uM (fold change)
# [4] = score in summary of 38 core set hits
SMILES,fold induction at 10 µM (WI-38 cells; [2]),fold induction at 10 µM (WI-38 cells; [3]),Assay 3: MMS-resistant (WI-38 cells),Assay 5: Triple resistant (WI-38 cells),B = MMS resistant (WI-38 cells; [4]),B = MMS resistant (WI-38 cells; summary score),D = Triple resistant (WI-38 cells; summary score),other results
O=C(Nc1cc(C(F)(F)F)ccc1Cl)c1ccc([N+](=O)[O-])o1 [Gr-1B],0.7,3.03,NO *,YES,0,0,0,–
CCc1ccccc1NC(=O)c1ccc([N+](=O)[O-])o1 [Gr-1C],0.73,0.39,–,–,0,0,0,–
O=C(Nc1cccc(Cl)c1)c1ccc([N+](=O)[O-])o1 [Gr-1D],1.16,2.31,YES,YES,0,1,2,–
O=C(Nc1cccc(C(F)(F)F)c1)c1ccc([N+](=O)[O-])o1 [Gr-1E],0.72,1.21,NO *,YES,0,0,0,–
O=C(Nc1ccc(Cl)c(Cl)c1)c1ccc([N+](=O)[O-])o1 [Gr-1G],1.32,1.89,–,–,0,0,0,–
COc1ccc(C(=O)/C=C/c2ccc(F)cc2)c(OC)c1 [Gr-4A],0.95,1.52,–,–,0,0,0,–
COc1ccc(C(=O)/C=C/c2ccccc2Br)c(OC)c1 [Gr-4B],1.22,1.54,YES,YES,0,1,2,–
COc1ccc(C(=O)/C=C/c2cccc(Cl)c2)c(OC)c1 [Gr-4C],1.24,1.61,YES,YES,0,1,2,–
CCc1ccc(Oc2nc3ccccn3c(=O)c2/C=C(\C#N)C(=O)NC2CCCCC2)cc1 [Gr-5A],0.83,1.49,–,–,0,0,0,"Potential killing effects on HTB-178 tumor cells, 1st [1]: YES;"
CCc1ccc(Oc2nc3ccccn3c(=O)c2/C=C(\C#N)C(=O)NCc2ccco2)cc1 [Gr-5B],1.13,1.36,–,–,0,0,0,–
CNC(=O)/C(C#N)=C/c1c(Oc2ccc(C(C)(C)C)cc2)nc2ccccn2c1=O [Gr-5D],–,–,YES,YES,0,1,2,–
Cc1cc(N)n(-c2ccccc2C(=O)O)n1 [Gr-6A],2.2,7.2,YES,YES,1,1,2,"MMS-resistant (WI-38 cells): YES; Multiplex resistance to cadmium, MMS and H2O2 (WI-38 cells; 0.25 μM to 20 μM, repurchased molecules): reproducibly conferred multiplex resistance; Triple resistant (WI-38 cells): YES; MMS-resistant (WI-38 cells; WI-38 cells, 10 μM): YES; Triple resistant (WI-38 cells; WI-38 cells, 10 μM): YES; Potential killing effects on HTB-178 tumor cells, 1st [1]: YES;"
O=C(/C=C/c1cn(-c2ccccc2)nc1-c1cccnc1)c1ccccc1 [Gr-6B],2.12,1.22,YES,YES,0,1,2,–
N=C1S/C(=C\c2cn(-c3ccccc3)nc2-c2cccs2)C(=O)N1c1nccs1 [Gr-6C],–,–,–,–,0,0,0,–
O=C(NCc1cccnc1)/C(=C\c1ccc(Br)cc1)S(=O)(=O)c1ccccc1 [Gr-7B],0.39,1.45,–,–,0,0,0,"Assay 21: Potential killing effects on HTB-178 tumor cells [1]: YES; Toxicity / viability of HTB-178 lung tumor cells ([1]; 10 μM, preliminary data): exerted more pronounced toxicity; also recorded: significantly reduce the viability; Potential killing effects on HTB-178 tumor cells, 1st [1]: YES;"
O=C1NCCCc2cc(Cl)sc21 [O1],1.2,4.96,–,–,0,0,0,–
O=C(Nc1nc(C23CC4CC(CC(C4)C2)C3)cs1)C(c1ccccc1)c1ccccc1 [O10],1.08,4.08,–,–,0,0,0,–
COc1cc2c(no[n+]2[O-])n2nnnc12 [O11],–,–,–,–,0,0,0,"Exp. 1, under MMS stress treatment, at 10 uM (fold change) (WI-38 cells; Exp. 1, WI-38 cells, 10 uM, normalized ATP measurement): 0.97 fold change; Exp. 2, under MMS stress treatment, at 10 uM (fold change) (WI-38 cells; Exp. 2, WI-38 cells, 10 uM, normalized ATP measurement): 4.20 fold change; Potential killing effects on HTB-178 tumor cells, 1st [1]: YES;"
CCCC(=O)Nc1ccc(-c2cn3cccc(C)c3n2)cc1 [O12],0.78,2,–,–,0,0,0,"Potential killing effects on HTB-178 tumor cells, 1st [1]: YES;"
CCCN1C/C(=C\c2ccc(F)cc2)C(=O)/C(=C/c2ccc(F)cc2)C1 [O15],0.16,0.38,–,–,0,0,0,"Potential killing effects on HTB-178 tumor cells, 1st [1]: YES;; Potential killing effects on HTB-178 tumor cells, 2nd [1]: YES."
[O-][n+]1onc2c3nsnc3c(Br)cc21 [O17],0.86,5.33,–,–,0,0,0,"Potential killing effects on HTB-178 tumor cells, 1st [1]: YES;; Potential killing effects on HTB-178 tumor cells, 2nd [1]: YES."
COC(=O)CCc1sc2c(c1[N+](=O)[O-])NC(=O)CCC2 [O20],2.17,1.46,YES,YES,0,1,2,–
COc1ccc(/C=C2\SC(=N)N(c3nccs3)C2=O)cc1 [O21],0.74,0.94,–,–,0,0,0,–
Oc1ccccc1-c1noc(-c2ccccc2O)n1 [O27],–,–,–,YES,0,0,0,Assay 21: Potential killing effects on HTB-178 tumor cells [1]: YES
